The target of data set [1] is Sphingosine 1-phosphate receptor 1 (Homo sapiens, UniProt P21453). Nature of the data set: Antagonist activity against S1P1R in human U2OS cells expressing beta-arrestin/green fluorescent protein assessed as effect on S1P-induced beta-arrestin GFP relocalization incubated for 30 mins by Hoechst 33342 staining based receptor translocation assay. It counts as cell-based.

Data set [2] in a line: (§1) Intrinsic clearance in human liver microsomes. The data set is classed as ADME. Particulars: liver microsomes, read-out: CLH. In general terms: Liver microsomes are vesicles of endoplasmic reticulum, rich in cytochrome P450 enzymes.
Data set [3] can be described thus: Protein binding in rat plasma assessed as unbound fraction. The data set is classed as ADME, cell-free.
The nature of data set [4]: Apparent permeability from basolateral to apical side in human Caco2 cells. The data set is classed as ADME, cell-based. Particulars: Caco-2. (In general: Caco-2 cells form a polarised layer with tight junctions and transporters.)
The test system of data set [5] is Rattus norvegicus. Kind of data set: AUC in rat at 3 mg/kg, po. Also on record: dose 3 mg/kg, route oral. Particulars: in vivo. The data set is classed as ADME, organism-based, Plasma.
The nature of data set [6]: Protein binding in human plasma assessed as unbound fraction. The data set is classed as ADME, cell-free.
Data set [7] can be described thus: Volume of distribution at steady state in rat at 1 mg/kg, iv. The data set is classed as ADME, organism-based. Also on record: dose 1 mg/kg, route intravenous. Particulars: in vivo, read-out: Vdss.
Data set [8] is described as follows: Apparent permeability from apical to basolateral side in human Caco2 cells. To be noted: Caco-2. It counts as ADME, cell-based.
A further data set concerns Liver microsome. Described as §1. It counts as ADME. To be noted: microsomes.
Data set [9] deals with Rattus norvegicus. Nature of the data set: Oral bioavailability in rat at 3 mg/kg. The data set is classed as ADME, organism-based. To be noted: in vivo.
Data set [10] in a line: Intrinsic clearance in rat hepatocytes assessed per 10^6 cells. It counts as ADME, cell-based, Hepatocyte. Particulars: read-out: CLH.
A short description of data set [11]: Cmax in rat at 3 mg/kg, po. The data set is classed as ADME, organism-based. Also on record: dose 3 mg/kg, route oral. To be noted: in vivo.
Data set [12] in a line: Lipophilicity, log D of the compound. The data set is classed as physicochemical. Particulars: octanol/water.
A short description of data set [13]: Solubility in pH 7.4 buffer. The data set is classed as physicochemical.
Data set [14] in a line: Half life in rat at 1 mg/kg, iv. Particulars: in vivo. It counts as ADME, organism-based. More on the design: dose 1 mg/kg, route intravenous.
Data set [15] in a line: Intrinsic clearance in human hepatocytes assessed per 10^6 cells. To be noted: read-out: CLH. It counts as ADME, cell-based, Hepatocyte.

SMILES strings stand for the structures. In brackets after ≈: the same amount, converted by molar mass.

These results are taken from ChEMBL document CHEMBL3399941, “Discovery of heterocyclic sulfonamides as sphingosine 1-phosphate receptor 1 (S1P1) antagonists” (Bioorg Med Chem Lett, 2015).

As a reminder, the EC50 is the midpoint of the concentration-response curve. The term fraction unbound denotes free concentration divided by total concentration. The term Papp B→A denotes the apparent permeability from the basolateral to the apical side of a cell layer. A word on the AUC: it is the area under the concentration-time curve, a measure of exposure. For orientation: Papp A→B means how fast a substance crosses the layer from the apical side. In general, Cmax refers to the maximum level reached in the sampled fluid or tissue. In general, logD refers to the decadic logarithm of the distribution of all forms, ionised or not, between an organic phase and buffer at a given pH. Read a high logD as a more lipophilic compound. For orientation: solubility means the concentration that dissolves in the medium under given conditions. A word on the half-life: it is how long it takes for the measured level to halve. Lower therefore signals fast loss.

Chain of Sphingosine 1-phosphate receptor 1 (P21453 whole entry): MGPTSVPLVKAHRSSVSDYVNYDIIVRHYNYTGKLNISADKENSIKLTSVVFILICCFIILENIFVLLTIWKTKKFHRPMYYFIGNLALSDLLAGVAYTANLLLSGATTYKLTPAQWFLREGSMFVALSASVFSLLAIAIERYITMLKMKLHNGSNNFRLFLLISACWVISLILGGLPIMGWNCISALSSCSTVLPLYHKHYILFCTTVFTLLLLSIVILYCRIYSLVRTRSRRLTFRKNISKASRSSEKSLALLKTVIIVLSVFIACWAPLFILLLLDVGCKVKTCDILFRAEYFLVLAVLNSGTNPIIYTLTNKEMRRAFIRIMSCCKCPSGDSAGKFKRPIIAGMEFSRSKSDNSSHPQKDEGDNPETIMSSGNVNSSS

Regarding `CCc1snc(C(C)NS(=O)(=O)c2ccc(Cl)cc2)c1CC` (racemic), the concentration for a half-maximal effect (EC50) in data set [1] was 720 nM. In [2], the microsomal CLint was over 100 µL/min/mg.
Turning to `CCc1nnc([C@@H](C)NS(=O)(=O)c2ccc(Cl)cc2)n1CC`, the free fraction (fraction unbound) in data set [3] was found to be 0.5; in data set [6], 0.34. The Papp B→A in data set [4] came to 22.5 ×10⁻⁶ cm/s. The AUC with Rattus norvegicus [5] was 2.7 µM·h. In addition, the EC50 in data set [1] was 250 nM. In data set [7], the Vd is 0.7 L/kg. For the same molecule, the Papp A→B in data set [8] stood at 11.1 ×10⁻⁶ cm/s. In the data set with Liver microsome, this molecule showed a microsomal CLint of 5.5 µL/min/mg. Moreover, the F in the data set on Rattus norvegicus [9] was determined as 11%. For the same molecule, in data set [10], the hepatocyte CLint was found to be 10.2 µL/min/1e6 cells. The molecule also displayed a maximum concentration (Cmax) in data set [11] of 1600 nM. In addition, the logD in [12] is 1.4. This molecule returned a solubility in [13] of over 600 µM. The half-life in data set [14] was 1.4 h.
Regarding `Cc1cnc(C(Cc2ccccc2)NS(=O)(=O)c2ccc(Cl)cc2)n1C` (racemic), the 50% effective concentration (EC50) in data set [1] is 1610 nM. Further, the microsomal CLint in data set [2] is over 100 µL/min/mg.
`CCn1c(C)nnc1C(CC1CC1)NS(=O)(=O)c1ccc(Cl)cc1` (racemic): the EC50 in data set [1] was found to be 7690 nM.
On the same count and under the same terms, as for `CCn1c(C)nnc1C(Cc1ccccc1)NS(=O)(=O)c1ccc(Cl)cc1` (racemic), the figure is 460 nM.
The same measure, in the same setting: for `CCn1c(C)nnc1C(Cc1cccnc1)NS(=O)(=O)c1ccc(Cl)cc1` (racemic) the value was 2370 nM; for `CCc1nnc([C@H](C)NS(=O)(=O)c2ccc(Cl)cc2)n1CC`, over 33000 nM.
Consider `CCc1[nH]nc(C(C)NS(=O)(=O)c2ccc(Cl)cc2)c1CC` (racemic), for which, in [1], the EC50 was determined as 310 nM. Further, the microsomal CLint in data set [2] is over 100 µL/min/mg.
As to `CCc1nnc(C(C)NS(=O)(=O)c2ccc(Cl)cc2)n1CC` (racemic), the EC50 in [1] came to 410 nM.
`Cc1nnc(C(Cc2ccccc2)NS(=O)(=O)c2ccc(Cl)cc2)n1C` (racemic): the EC50 in [1] worked out at 1830 nM.
In the case of `Cn1c(C(Cc2ccccc2)NS(=O)(=O)c2ccc(Cl)cc2)nnc1C(F)(F)F` (racemic), the EC50 in data set [1] amounted to 3170 nM.
Same read-out and setting: as for `CCc1nnc(C(Cc2ccccc2)NS(=O)(=O)c2ccc(Cl)cc2)n1CC` (racemic), the figure is 220 nM; as for `Cc1nnc(C(Cc2ccccc2)NS(=O)(=O)c2ccc(Cl)cc2)n1C(C)C` (racemic), 6340 nM.
`CCCCc1nnc(C(Cc2ccccc2)NS(=O)(=O)c2ccc(Cl)cc2)n1C` (racemic): the EC50 in data set [1] was 3230 nM.
Turning to `CCc1nnc(C(Cc2ccccc2)NS(=O)(=O)c2ccc(Cl)cc2)o1` (racemic), in data set [1], the half-maximal effective concentration (EC50) was found to be 15200 nM. Also, the microsomal CLint in data set [2] is over 100 µL/min/mg.
`CCn1c(C)nnc1C(Cc1ccc(F)cc1)NS(=O)(=O)c1ccc(Cl)cc1` (racemic): the EC50 in data set [1] worked out at 490 nM.
On to `CCc1onc(C(C)NS(=O)(=O)c2ccc(Cl)cc2)c1CC` (racemic), for which, in [1], the EC50 turned out to be 3030 nM. For the same molecule, in [2], the microsomal CLint was over 100 µL/min/mg.
Take `CCc1nnc(C(Cc2ccccc2)NS(=O)(=O)c2ccc(Cl)cc2)n1C` (racemic): the EC50 in [1] worked out at 340 nM.
The same measure, in the same setting: for `Cc1nnc(C(Cc2ccccc2)NS(=O)(=O)c2ccc(Cl)cc2)n1Cc1ccccc1` (racemic) the value was over 100000 nM.
With `CCCC(NS(=O)(=O)c1ccc(Cl)cc1)c1nnc(C)n1CC` (racemic), in data set [1], the 50% effective concentration (EC50) is 6190 nM.
For `C=CCSc1nnc(C(Cc2ccccc2)NS(=O)(=O)c2ccc(Cl)cc2)n1C` (racemic), in [1], the EC50 is 1030 nM.
On the same count and under the same terms, as for `C=CCC(NS(=O)(=O)c1ccc(Cl)cc1)c1nnc(C)n1CC` (racemic), the figure is 2250 nM.
For the molecule `Cc1ncc(C(Cc2ccccc2)NS(=O)(=O)c2ccc(Cl)cc2)n1C` (racemic), the 50% effective concentration (EC50) in data set [1] is over 100000 nM. The microsomal CLint in [2] is over 100 µL/min/mg.
As for `CCn1c(C)nnc1C(C)NS(=O)(=O)c1ccc(Cl)cc1` (racemic), the concentration giving a half-maximal response (EC50) in [1] came out at 670 nM. Also, in data set [15], the hepatocyte CLint was under 2 µL/min/1e6 cells. Also, in [2], the microsomal CLint was under 5 µL/min/mg. In data set [13], the solubility was determined as 380 µM (≈ 125 µg/mL).
Regarding `CCCn1c(C)nnc1C(Cc1ccccc1)NS(=O)(=O)c1ccc(Cl)cc1` (racemic), the EC50 in [1] amounted to 2690 nM.
Still for that read-out and setting: as for `Cn1cnnc1C(Cc1ccccc1)NS(=O)(=O)c1ccc(Cl)cc1` (racemic), the figure is 22100 nM.
